Experimental data: US10722516B2, “Use of landiolol hydrochloride in the long-term treatment of tachyarrhythmias” (AOP Orphan Pharmaceuticals AG, priority 2013, dated 2020)
Entries after “also recorded” stand apart in the source; their conditions may differ. Structures can show the parent of a compound that is named as a salt.

Legend:
healthy volunteers [1] = assay: 24 h long-term infusion study, AOP LDLL600 against esmolol: heart rate; assay type: in vivo, human; conditions: for heart rate: Table 1
Experimental: (§1) A single centre prospective, randomized, double blind, crossover, pharmacokinetic, safety and tolerability study to compare long-term infusion administration of AOP LDLL600 against esmolol in healthy volunteers was performed.
(§2) Landiolol hydrochloride lyophilized (LDLL600) comprises 600 mg landiolol hydrochloride, 600 mg mannitol, pH 6.5. The primary packing of LDLL600 is 50 ml vial, the reconstitution volume is 50 ml and the final product concentration is 12 mg/mL landiolol HCl.
(§3) 12 subjects were administered AOP LDLL600 or Esmolol (Brevibloc, 2500 mg/250 ml) in 1:1 ratio in double-blind, randomized, cross-over setting. PK, systemic cardiovascular and local tolerability and safety of the 24 h-long term infusions of three dose levels of both IMPs during each treatment period were assessed.
(§4) Landiolol was infused over 24 h in a dose of 10 μg/KG/min (2 hrs), followed by 20 μg/KG/min (2 hrs), followed by 40 μg/KG/min for 20 hrs.
(§5) Dosing algorithm was body weight divided by 20, 10 and 5 in ml/h giving 10, 20 and 40 μg/KG/min at a concentration of 12 mg/ml. No severe adverse drug reactions, mild local reactions, 1 severe local reaction (Esmolol High Dose).
(§6) Landiolol was infused over 24 h in a dose of 10, 20 and 40 μg/KG/min, i.e. 10 μg/KG/min landiolol were administered for 2 hrs, followed by 2 hrs administration of 20 μg/KG/min and further followed by 20 hrs administration of 40 μg/KG/min.
Post-infusion follow up measurements were performed immediately after 20 hrs administration study, i.e. 2, 4 min etc. after stop of landiolol administration.

healthy volunteers [2] = assay: 24 h long-term infusion study: local tolerability and safety; assay type: in vivo, human
Experimental: as §1, §2, §3, §4, §5, §6

[3] = LD infusion (landiolol 10, esmolol 50 μg/kg/min), 6 min
[4] = LD infusion (landiolol 10, esmolol 50 μg/kg/min), 8 min
[5] = LD infusion (landiolol 10, esmolol 50 μg/kg/min), 12 min
[6] = LD infusion (landiolol 10, esmolol 50 μg/kg/min), 16 min
[7] = LD infusion (landiolol 10, esmolol 50 μg/kg/min), 20 min
[8] = LD infusion (landiolol 10, esmolol 50 μg/kg/min), 30 min
[9] = LD infusion (landiolol 10, esmolol 50 μg/kg/min), 60 min
[10] = LD infusion (landiolol 10, esmolol 50 μg/kg/min), 90 min
[11] = LD infusion (landiolol 10, esmolol 50 μg/kg/min), 2 h
[12] = MD infusion (landiolol 20, esmolol 100 μg/kg/min, after 2 h LD), 2 min
[13] = MD infusion (landiolol 20, esmolol 100 μg/kg/min, after 2 h LD), 3 min
[14] = MD infusion (landiolol 20, esmolol 100 μg/kg/min, after 2 h LD), 4 min
[15] = MD infusion (landiolol 20, esmolol 100 μg/kg/min, after 2 h LD), 6 min
[16] = MD infusion (landiolol 20, esmolol 100 μg/kg/min, after 2 h LD), 8 min
[17] = MD infusion (landiolol 20, esmolol 100 μg/kg/min, after 2 h LD), 12 min
[18] = MD infusion (landiolol 20, esmolol 100 μg/kg/min, after 2 h LD), 16 min
[19] = MD infusion (landiolol 20, esmolol 100 μg/kg/min, after 2 h LD), 20 min
[20] = MD infusion (landiolol 20, esmolol 100 μg/kg/min, after 2 h LD), 30 min
[21] = MD infusion (landiolol 20, esmolol 100 μg/kg/min, after 2 h LD), 60 min
[22] = MD infusion (landiolol 20, esmolol 100 μg/kg/min, after 2 h LD), 90 min
[23] = MD infusion (landiolol 20, esmolol 100 μg/kg/min, after 2 h LD), 2 h
[24] = 24 h infusion, three dose levels

Q: With `CC1(C)OC[C@@H](COC(=O)CCc2ccc(OC[C@@H](O)CNCCNC(=O)N3CCOCC3)cc2)O1` [Landiolol, (−)-[(S)-2,2-dimethyl-1,3-dioxolan-4-yl]methyl 3-[4-[(S)-2-hydroxy-3-(2-morpholinocarbonylamino)ethylamino]propoxy]phenylpropionate monohydrochloride] as the compound, how does the “heart rate, Mean (SD)” value (healthy volunteers [1]; LD infusion (landiolol 10, esmolol 50 μg/kg/min), 4 min) read?
A: The value was 64.6 (6.97) beats per minute.

Q: And the “change of heart rate from predose, Mean (SD)” value (shortened to “change of heart rate … (SD)”) (healthy volunteers [1]; [3])?
A: Its value is −1.7 (7.97) beats per minute.

Q: And the “heart rate, Mean (SD)” value (healthy volunteers [1]; [3])?
A: Its value is 65.7 (8.78) beats per minute.

Q: What about the “change of heart rate … (SD)” value (healthy volunteers [1]; [4]) of the same compound?
A: Its value is −3.6 (9.07) beats per minute.

Q: What about the “heart rate, Mean (SD)” value (healthy volunteers [1]; [4]) of the same compound?
A: The value was 63.8 (6.57) beats per minute.

Q: What about the “change of heart rate … (SD)” value (healthy volunteers [1]; [5]) of the same compound?
A: Its value is −4.7 (10.99) beats per minute.

Q: What about the “heart rate, Mean (SD)” value (healthy volunteers [1]; [5]) of the same compound?
A: The value was 62.7 (7.71) beats per minute.

Q: What about the “change of heart rate … (SD)” value (healthy volunteers [1]; [6]) of the same compound?
A: Its value is −7.1 (5.32) beats per minute.

Q: And the “heart rate, Mean (SD)” value (healthy volunteers [1]; [6])?
A: The value was 60.3 (6.72) beats per minute.

Q: What about the “change of heart rate … (SD)” value (healthy volunteers [1]; [7]) of the same compound?
A: Its value is −7.3 (10.51) beats per minute.

Q: And the “heart rate, Mean (SD)” value (healthy volunteers [1]; [7])?
A: The value was 60.0 (6.05) beats per minute.

Q: What about the “change of heart rate … (SD)” value (healthy volunteers [1]; [8]) of the same compound?
A: The value was −7.8 (12.55) beats per minute.

Q: What about the “heart rate, Mean (SD)” value (healthy volunteers [1]; [8]) of the same compound?
A: Its value is 59.5 (8.55) beats per minute.

Q: And the “change of heart rate … (SD)” value (healthy volunteers [1]; [9])?
A: The value was −9.6 (11.89) beats per minute.

Q: And the “heart rate, Mean (SD)” value (healthy volunteers [1]; [9])?
A: The value was 57.8 (8.05) beats per minute.

Q: And the “change of heart rate … (SD)” value (healthy volunteers [1]; [10])?
A: The value was −9.3 (11.33) beats per minute.

Q: What about the “heart rate, Mean (SD)” value (healthy volunteers [1]; [10]) of the same compound?
A: Its value is 58.1 (7.14) beats per minute.

Q: And the “change of heart rate … (SD)” value (healthy volunteers [1]; [11])?
A: The value was −11.2 (11.75) beats per minute.

Q: And the “heart rate, Mean (SD)” value (healthy volunteers [1]; [11])?
A: The value was 56.2 (5.89) beats per minute.

Q: What about the “change of heart rate … (SD)” value (healthy volunteers [1]; MD Predose (end of 2 h LD)) of the same compound?
A: Its value is −11.2 (11.75) beats per minute.

Q: What about the “heart rate, Mean (SD)” value (healthy volunteers [1]; MD Predose (end of 2 h LD)) of the same compound?
A: The value was 56.2 (5.89) beats per minute.

Q: What about the “change of heart rate … (SD)” value (healthy volunteers [1]; [12]) of the same compound?
A: The value was −11.1 (10.73) beats per minute.

Q: And the “heart rate, Mean (SD)” value (healthy volunteers [1]; [12])?
A: Its value is 56.3 (6.48) beats per minute.

Q: And the “change of heart rate … (SD)” value (healthy volunteers [1]; [13])?
A: The value was −9.8 (7.90) beats per minute.

Q: And the “heart rate, Mean (SD)” value (healthy volunteers [1]; [13])?
A: The value was 57.6 (5.02) beats per minute.

Q: What about the “change of heart rate … (SD)” value (healthy volunteers [1]; [14]) of the same compound?
A: Its value is −10.9 (9.26) beats per minute.

Q: And the “heart rate, Mean (SD)” value (healthy volunteers [1]; [14])?
A: The value was 56.4 (6.87) beats per minute.

Q: What about the “change of heart rate … (SD)” value (healthy volunteers [1]; [15]) of the same compound?
A: Its value is −11.2 (11.10) beats per minute.

Q: What about the “heart rate, Mean (SD)” value (healthy volunteers [1]; [15]) of the same compound?
A: Its value is 56.2 (7.86) beats per minute.

Q: What about the “change of heart rate … (SD)” value (healthy volunteers [1]; [16]) of the same compound?
A: Its value is −9.7 (10.96) beats per minute.

Q: And the “heart rate, Mean (SD)” value (healthy volunteers [1]; [16])?
A: The value was 57.7 (7.24) beats per minute.

Q: And the “change of heart rate … (SD)” value (healthy volunteers [1]; [17])?
A: Its value is −12.8 (10.17) beats per minute.

Q: What about the “heart rate, Mean (SD)” value (healthy volunteers [1]; [17]) of the same compound?
A: Its value is 54.5 (6.07) beats per minute.

Q: And the “change of heart rate … (SD)” value (healthy volunteers [1]; [18])?
A: Its value is −10.4 (11.42) beats per minute.

Q: What about the “heart rate, Mean (SD)” value (healthy volunteers [1]; [18]) of the same compound?
A: Its value is 56.9 (6.88) beats per minute.

Q: And the “change of heart rate … (SD)” value (healthy volunteers [1]; [19])?
A: The value was −12.8 (10.52) beats per minute.

Q: And the “heart rate, Mean (SD)” value (healthy volunteers [1]; [19])?
A: The value was 54.5 (6.86) beats per minute.

Q: And the “change of heart rate … (SD)” value (healthy volunteers [1]; [20])?
A: Its value is −9.0 (11.92) beats per minute.

Q: What about the “heart rate, Mean (SD)” value (healthy volunteers [1]; [20]) of the same compound?
A: Its value is 58.3 (8.53) beats per minute.

Q: What about the “change of heart rate … (SD)” value (healthy volunteers [1]; [21]) of the same compound?
A: The value was −11.3 (9.86) beats per minute.

Q: What about the “heart rate, Mean (SD)” value (healthy volunteers [1]; [21]) of the same compound?
A: Its value is 56.0 (5.17) beats per minute.

Q: What about the “change of heart rate … (SD)” value (healthy volunteers [1]; [22]) of the same compound?
A: Its value is −10.2 (10.81) beats per minute.

Q: What about the “heart rate, Mean (SD)” value (healthy volunteers [1]; [22]) of the same compound?
A: Its value is 57.2 (6.79) beats per minute.

Q: What about the “change of heart rate … (SD)” value (healthy volunteers [1]; [23]) of the same compound?
A: The value was −11.3 (9.41) beats per minute.

Q: And the “heart rate, Mean (SD)” value (healthy volunteers [1]; [23])?
A: Its value is 56.1 (7.38) beats per minute.

Q: What about the “heart rate, Mean (SD)” value (healthy volunteers [1]; Predose (before first IMP administration)) of the same compound?
A: The value was 67.3 (8.18) beats per minute.

Q: What about the heart rate (healthy volunteers [1]; Control (before administration)) of the same compound?
A: Its heart rate is 67.8 beats per minute.

Q: And the heart rate (healthy volunteers [1]; high dose (landiolol 40, esmolol 200 μg/kg/min), time 720 min)?
A: Its heart rate is 57.5 beats per minute.

Q: What about the heart rate (healthy volunteers [1]; high dose (landiolol 40, esmolol 200 μg/kg/min), time 1200 min) of the same compound?
A: Its heart rate is 53.6 beats per minute.

Q: And the heart rate (healthy volunteers [1]; low dose (landiolol 10, esmolol 50 μg/kg/min), time 12 min)?
A: The heart rate was 62.7 beats per minute.

Q: And the heart rate (healthy volunteers [1]; low dose (landiolol 10, esmolol 50 μg/kg/min), time 16 min)?
A: The heart rate was 60.3 beats per minute.

Q: And the heart rate (healthy volunteers [1]; low dose (landiolol 10, esmolol 50 μg/kg/min), time 30 min)?
A: Its heart rate is 59.5 beats per minute.

Q: What about the heart rate (healthy volunteers [1]; low dose (landiolol 10, esmolol 50 μg/kg/min), time 60 min) of the same compound?
A: The heart rate was 57.8 beats per minute.

Q: And the heart rate (healthy volunteers [1]; low dose (landiolol 10, esmolol 50 μg/kg/min), time 120 min)?
A: Its heart rate is 56.2 beats per minute.

Q: What about the heart rate (healthy volunteers [1]; medium dose (landiolol 20, esmolol 100 μg/kg/min), time 240 min) of the same compound?
A: The heart rate was 56.1 beats per minute.

Q: What about the heart rate (healthy volunteers [1]; time after administration 12 min (end at 1440 min)) of the same compound?
A: Its heart rate is 63.5 beats per minute.

Q: And the heart rate (healthy volunteers [1]; time after administration 16 min)?
A: The heart rate was 67 beats per minute.

Q: And the heart rate (healthy volunteers [1]; time after administration 30 min)?
A: Its heart rate is 70 beats per minute.

Q: What about the heart rate (healthy volunteers [1]; time after administration 60 min) of the same compound?
A: The heart rate was 69.2 beats per minute.

Q: What about the heart rate (healthy volunteers [1]; time after administration 120 min) of the same compound?
A: The heart rate was 66.8 beats per minute.

Q: And the “overshoot effect on heart rate” value (healthy volunteers [1]; after termination of long term administration, listed as landiolol-hydrochloride, monohydrochloride)?
A: Its value is “avoiding any overshoot effect; also recorded: no significant overshoot effect occurs”.

Q: And the tolerance effect (healthy volunteers [1]; long term administration)?
A: The tolerance effect was “without showing any tolerance effects”.

Q: And the “heart rate effect during administration” value (healthy volunteers [1]; long term administration, listed as landiolol-hydrochloride, monohydrochloride)?
A: Its value is “persistent reduction of heart rate; also recorded: significantly lower than the heart rate and/or blood pressure values achieved under esmolol long-term treatment”.

Q: And the “local tolerability compared to Esmolol” value (healthy volunteers [2]; 24 h infusion)?
A: Its value is “clearly better”.

Q: What about the “local reactions (percent of subjects)” value (healthy volunteers [2]; [24]) of the same compound?
A: The value was 16.7%.

Q: What about the “local reactions (subjects/total)” value (healthy volunteers [2]; [24]) of the same compound?
A: The value was 2/12.

Q: And the “local venous skin irritations or inflammatory reactions at the site of injection” value (healthy volunteers [2]; long term treatment)?
A: The value was “did not bring about any blushing, erythema, pain, inflammation, induration, phlebitis and thrombosis”.
